Assay results as given in PubChem BioAssay AID602133 (Sanford-Burnham Center for Chemical Genomics, 2011).
Calls of active or inactive are those of the source. No rule for the calls is given here.

Biological target: glucose-6-phosphate dehydrogenase-6-phosphogluconolactonase (Plasmodium falciparum 3D7)
Experiment: PfG6PD enzyme inhibitors, kinetic orthogonal readout, SAR follow-up, orthogonal assay for PfG6PD antimalarial inhibitor project, biochemical, kinetic direct NADPH detection, set 2 (AID 602133)
Details: recombinant PfG6PD

Compound: CCN1CCCC1CNC(=O)c1ccc2c(c1)NC(=O)C(Cc1ccccc1F)S2 (stereo not drawn)
- IC50: > 80 µM (inactive)

Compound: CCN(CC)CCCC(C)Nc1ccnc2cc(Cl)ccc12 (stereo not drawn)
- IC50: 43 µM

Compound: CCC(C)N1CCCC1CNC(=O)c1ccc2c(c1)NC(=O)c1ccccc1S2 (stereo not drawn)
- IC50: 9.97 µM

Compound: CCN1CCC[C@H]1CNC(=O)c1ccc2c(c1)NC(=O)/C(=C/c1ccccc1F)S2
- IC50: 4.65 µM

Compound: CCN1CCCC1CNC(=O)c1ccc2c(c1)NC(=O)/C(=C/c1ccc(F)cc1)S2 (stereo not drawn)
- IC50: 2.06 µM

Compound: CCN1CCC[C@H]1CNC(=O)c1ccc2c(c1)NC(=O)c1ccccc1S2
- IC50: 46.4 µM

Compound: CC(C)(C)OC(=O)N1CCCC1CNC(=O)c1ccc2c(c1)NC(=O)/C(=C/c1ccccc1F)S2 (stereo not drawn)
- IC50: 24.4 µM

Compound: O=C(NCCN1CCCCC1)c1ccc2c(c1)NC(=O)c1ccccc1S2
- IC50: 18.3 µM

Compound: O=C(NCCN1CCOCC1)c1ccc2c(c1)NC(=O)c1ccccc1S2
- IC50: > 80 µM (inactive)

Compound: CCN1CCCC1CNC(=O)c1ccc2c(c1)NC(=O)/C(=C/c1ccc3ccccc3c1)S2 (stereo not drawn)
- IC50: 2.88 µM

Compound: NCCNC(=O)c1ccc2c(c1)NC(=O)c1ccccc1S2
- IC50: > 80 µM (inactive)

Compound: CCN(CC)CCNC(=O)c1ccc2c(c1)NC(=O)/C(=C/c1ccccc1F)S2
- IC50: 4.75 µM

Compound: NC1CCN(C(=O)c2ccc3c(c2)NC(=O)c2ccccc2S3)C1 (stereo not drawn)
- IC50: > 80 µM (inactive)

Compound: CCC(C)N(CCNC(=O)c1ccc2c(c1)NC(=O)c1ccccc1S2)C1CCCCC1 (stereo not drawn)
- IC50: 13.3 µM

Compound: CCN1CCC[C@@H]1CNC(=O)c1ccc2c(c1)NC(=O)/C(=C/c1ccccc1F)S2
- IC50: 1.94 µM

Compound: CCN1CCC[C@@H]1CNC(=O)c1ccc2c(c1)NC(=O)c1ccccc1S2
- IC50: 4.84 µM

Compound: NC1CCN(C(=O)c2ccc3c(c2)NC(=O)/C(=C/c2ccccc2F)S3)C1 (stereo not drawn)
- IC50: 35 µM

Compound: CN(C)c1ccccc1CNC(=O)c1ccc2c(c1)NC(=O)/C(=C/c1ccccc1F)S2
- IC50: 67.8 µM
